Consider one compound from article PMC6532548, “Embelin, a Potent Molecule for Alzheimer's Disease: A Proof of Concept From Blood-Brain Barrier Permeability, Acetylcholinesterase Inhibition and Molecular Docking Studies” (Frontiers in Neuroscience, 2019).

The assay has as its target acetylcholinesterase (AChE) (Electrophorus electricus, UniProt O42275). Description: Ellman's assay with electric eel AChE, acetylthiocholine iodide substrate. The assay is classed as biochemical. In general terms: Ellman's reagent forms a yellow product with free thiols.

acetylcholinesterase (AChE), sequence (O42275 24-633): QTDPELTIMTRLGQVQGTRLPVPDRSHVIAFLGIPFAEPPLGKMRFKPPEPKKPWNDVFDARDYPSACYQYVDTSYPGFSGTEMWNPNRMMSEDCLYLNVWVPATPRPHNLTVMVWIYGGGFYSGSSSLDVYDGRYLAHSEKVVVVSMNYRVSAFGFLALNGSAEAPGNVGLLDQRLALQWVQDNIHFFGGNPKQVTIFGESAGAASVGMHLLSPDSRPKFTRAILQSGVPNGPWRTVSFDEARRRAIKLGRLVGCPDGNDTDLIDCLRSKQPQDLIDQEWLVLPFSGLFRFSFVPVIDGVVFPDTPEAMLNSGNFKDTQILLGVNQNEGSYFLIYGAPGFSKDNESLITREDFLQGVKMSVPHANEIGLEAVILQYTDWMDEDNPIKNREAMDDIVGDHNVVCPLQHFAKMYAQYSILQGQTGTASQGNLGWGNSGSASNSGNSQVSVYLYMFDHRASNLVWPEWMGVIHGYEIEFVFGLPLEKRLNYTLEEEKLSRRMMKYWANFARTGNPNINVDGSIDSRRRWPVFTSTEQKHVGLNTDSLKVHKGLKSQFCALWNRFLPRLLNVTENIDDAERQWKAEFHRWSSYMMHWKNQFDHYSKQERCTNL

As for `CCCCCCCCCCCC1=C(O)C(=O)C=C(O)C1=O` [embelin, 2,5-dihydroxy-3-undecyl-1,4-benzoquinone], half-maximal inhibition (IC50) required 169 µM.

Broadly, the IC50 is the concentration that inhibits the measured activity by half. A low value points to higher potency.
